Measurements: patent US20160212997A1, “AGRICULTURAL CHEMICALS” (REDAG CROP PROTECTION LTD, priority 2013, published 2016)
Read-outs that look alike come from different tables or passages of the source.

Tests used:
aphids, Myzus persicae = experiment: Potter tower spray on aphids, knockdown and mortality; format: in vivo; conditions: Myzus persicae, read-out: Average of % corrected affected; for pest or weed control at 0.00625 % strength: 0.00625 % w/v; for pest or weed control at 0.0125 % strength: 0.0125 % w/v; for pest or weed control at 0.025 % strength: 0.025 % w/v; for pest or weed control at 0.05 % strength: 0.05 % w/v; for pest or weed control at 0.1 % strength: 0.1 % w/v
Excerpt: The compounds were screened for insecticidal efficacy against aphids, Myzus persicae, Cabbage moth, Mamestra brassicae, diamond black moths, Plutella xylostella, red spider mites, Tetranychus urticae, whitefly, Trialeurodes vaporariorum, in terms of knockdown and mortality.
(§1) Myzus persicae, Cabbage moth, Mamestra brassicae, diamond back moths, Plutella xylostella, red spider mites, Tetranychus urticae, whitefly, Trialeurodes vaporariorum, were obtained from specified laboratory cultures. Mixed sex and age aphids and mites, moth larvae and whitefly scale infested leaves were used in the experiments. Environmental conditions were closely monitored and recorded and were within the optimal range of the target species.
(§2) The compounds were screened at a range of five concentrations, diluted in DMSO. Some of the compounds were screened against aphids, whitefly and red spider mites and other compounds were screened against cabbage moth, and diamond black moths. A carrier only and an untreated control will also be conducted. Treatments were applied directly onto the insects within Petri dishes, using a potter tower.
(§3) Twenty mites and ten aphids, scales and moth larvae were placed within a Petri dish, lined with a suitable leaf disc on a damp cotton wool pad. Scales were already on leaves. The Petri dishes were then sprayed using a potter tower. The number of knocked down and anthropods were assessed at 24 and 48 hours post treatment. Five replicates were be performed for each treatment, for each species.
(§4) For Tables 2, 4, 5 and 6, the compounds were diluted in DMSO containing 1% v/v Tween 20™. For Tables 2, 4, 5 and 6, the caterpillars were a mixture of Mamestra brassicae and Lacanobia oleracea.

[1] = test system: caterpillars, a mixture of Mamestra brassicae and Lacanobia oleracea; experiment: Potter tower spray on caterpillars, knockdown and mortality; format: in vivo; conditions: read-out: Average of % corrected affected; for pest or weed control at 0.00625 % strength: 0.00625 % w/v; for pest or weed control at 0.0125 % strength: 0.0125 % w/v; for pest or weed control at 0.025 % strength: 0.025 % w/v; for pest or weed control at 0.05 % strength: 0.05 % w/v; for pest or weed control at 0.1 % strength: 0.1 % w/v
Excerpt: as §1, §2, §3, §4

[2] = 24 h, Aphids, 24 hours post application
[3] = 48 h, Aphids, 48 hours post application
[4] = 24 h, Caterpillars, 24 hours post application
[5] = 48 h, Caterpillars, 48 hours post application

Compound | pest or weed control at 0.00625 % strength (aphids, Myzus persicae; [2]) [%] | pest or weed control at 0.0125 % strength (aphids, Myzus persicae; [2]) [%] | pest or weed control at 0.025 % strength (aphids, Myzus persicae; [2]) [%] | pest or weed control at 0.05 % strength (aphids, Myzus persicae; [2]) [%] | pest or weed control at 0.1 % strength (aphids, Myzus persicae; [2]) [%] | pest or weed control at 0.00625 % strength (aphids, Myzus persicae; [3]) [%] | pest or weed control at 0.0125 % strength (aphids, Myzus persicae; [3]) [%] | pest or weed control at 0.025 % strength (aphids, Myzus persicae; [3]) [%] | pest or weed control at 0.05 % strength (aphids, Myzus persicae; [3]) [%] | pest or weed control at 0.1 % strength (aphids, Myzus persicae; [3]) [%] | pest or weed control at 0.00625 % strength [1, 4] [%] | pest or weed control at 0.0125 % strength [1, 4] [%] | pest or weed control at 0.025 % strength [1, 4] [%] | pest or weed control at 0.05 % strength [1, 4] [%] | pest or weed control at 0.1 % strength [1, 4] [%] | pest or weed control at 0.00625 % strength [1, 5] [%] | pest or weed control at 0.0125 % strength [1, 5] [%] | pest or weed control at 0.025 % strength [1, 5] [%] | pest or weed control at 0.05 % strength [1, 5] [%] | pest or weed control at 0.1 % strength [1, 5] [%] | also measured
O=C(CSc1ccc(C2=NOC(c3cc(Cl)cc(Cl)c3)(C(F)(F)F)C2)s1)NCC(F)(F)F (centres unmarked) [Compound 19, 2-[[5-[5-(3,5-dichlorophenyl)-5-(trifluoromethyl)-4H-isoxazol-3-yl]-2-thienyl]sulfanyl]-N-(2,2,2-trifluoroethyl)acetamide] |  |  |  |  |  |  |  |  |  |  |  |  |  |  |  |  |  |  |  |  | pest or weed control at 0.000125 % strength (aphids, Myzus persicae; 24 h): 20 to 39%; pest or weed control at 0.00025 % strength (aphids, Myzus persicae; 24 h): 1 to 19%; pest or weed control at 0.0005 % strength (aphids, Myzus persicae; 24 h): 1 to 19%; pest or weed control at 0.001 % strength (aphids, Myzus persicae; 24 h): 20 to 39%; pest or weed control at 0.002 % strength (aphids, Myzus persicae; 24 h): 1 to 19%; pest or weed control at 0.000125 % strength (aphids, Myzus persicae; 48 h): 40 to 59%; pest or weed control at 0.00025 % strength (aphids, Myzus persicae; 48 h): 20 to 39%; pest or weed control at 0.0005 % strength (aphids, Myzus persicae; 48 h): 20 to 39%; pest or weed control at 0.001 % strength (aphids, Myzus persicae; 48 h): 40 to 59%; pest or weed control at 0.002 % strength (aphids, Myzus persicae; 48 h): 1 to 19%; pest or weed control at 0.000125 % strength ([1]; 24 h): 0%; pest or weed control at 0.00025 % strength ([1]; 24 h): 0%; pest or weed control at 0.0005 % strength ([1]; 24 h): 1 to 19%; pest or weed control at 0.001 % strength ([1]; 24 h): 1 to 19%; pest or weed control at 0.002 % strength ([1]; 24 h): 1 to 19%; pest or weed control at 0.000125 % strength ([1]; 48 h): 1 to 19%; pest or weed control at 0.00025 % strength ([1]; 48 h): 1 to 19%; pest or weed control at 0.0005 % strength ([1]; 48 h): 1 to 19%; pest or weed control at 0.001 % strength ([1]; 48 h): 1 to 19%; pest or weed control at 0.002 % strength ([1]; 48 h): 1 to 19%
N#CCN(Cc1ccc(Cl)nc1)C1=CC(=O)OC1 [Compound 7, 2-[(6-Chloro-3-pyridyl)methyl-(5-oxo-2H-furan-3-yl)amino]acetonitrile] | 1 to 19 | 20 to 39 | 20 to 39 | 40 to 59 | 1 to 19 | 40 to 59 | 40 to 59 | 40 to 59 | 40 to 59 | 1 to 19 | 1 to 19 | 1 to 19 | 1 to 19 | 0 | 1 to 19 | 1 to 19 | 0 | 1 to 19 | 0 | 1 to 19 | 
Cc1cc(C2=NCC(c3cc(Cl)cc(Cl)c3)(C(F)(F)F)O2)ccc1SCC(=O)NCC(F)(F)F (centres unmarked) [Compound 18, 2-[4-[5-(3,5-dichlorophenyl)-5-(trifluoromethyl)-4H-oxazol-2-yl]-2-methyl-phenyl]sulfanyl-N-(2,2,2-trifluoroethyl)acetamide] |  |  |  |  |  |  |  |  |  |  |  |  |  |  |  |  |  |  |  |  | pest or weed control at 0.000125 % strength (aphids, Myzus persicae; 24 h, Aphids, 0.000125 % w/v, 24 hours post application): 1 to 19%; pest or weed control at 0.00025 % strength (aphids, Myzus persicae; 24 h, Aphids, 0.00025 % w/v, 24 hours post application): 1 to 19%; pest or weed control at 0.0005 % strength (aphids, Myzus persicae; 24 h, Aphids, 0.0005 % w/v, 24 hours post application): 1 to 19%; pest or weed control at 0.001 % strength (aphids, Myzus persicae; 24 h, Aphids, 0.001 % w/v, 24 hours post application): 1 to 19%; pest or weed control at 0.002 % strength (aphids, Myzus persicae; 24 h, Aphids, 0.002 % w/v, 24 hours post application): 1 to 19%; pest or weed control at 0.000125 % strength (aphids, Myzus persicae; 48 h, Aphids, 0.000125 % w/v, 48 hours post application): 1 to 19%; pest or weed control at 0.00025 % strength (aphids, Myzus persicae; 48 h, Aphids, 0.00025 % w/v, 48 hours post application): 1 to 19%; pest or weed control at 0.0005 % strength (aphids, Myzus persicae; 48 h, Aphids, 0.0005 % w/v, 48 hours post application): 1 to 19%; pest or weed control at 0.001 % strength (aphids, Myzus persicae; 48 h, Aphids, 0.001 % w/v, 48 hours post application): 1 to 19%; pest or weed control at 0.002 % strength (aphids, Myzus persicae; 48 h, Aphids, 0.002 % w/v, 48 hours post application): 1 to 19%; pest or weed control at 0.000125 % strength ([1]; 24 h, Caterpillars, 0.000125 % w/v, 24 hours post application): 1 to 19%; pest or weed control at 0.00025 % strength ([1]; 24 h, Caterpillars, 0.00025 % w/v, 24 hours post application): 0%; pest or weed control at 0.0005 % strength ([1]; 24 h, Caterpillars, 0.0005 % w/v, 24 hours post application): 1 to 19%; pest or weed control at 0.001 % strength ([1]; 24 h, Caterpillars, 0.001 % w/v, 24 hours post application): 1 to 19%; pest or weed control at 0.002 % strength ([1]; 24 h, Caterpillars, 0.002 % w/v, 24 hours post application): 1 to 19%; pest or weed control at 0.000125 % strength ([1]; 48 h, Caterpillars, 0.000125 % w/v, 48 hours post application): 1 to 19%; pest or weed control at 0.00025 % strength ([1]; 48 h, Caterpillars, 0.00025 % w/v, 48 hours post application): 1 to 19%; pest or weed control at 0.0005 % strength ([1]; 48 h, Caterpillars, 0.0005 % w/v, 48 hours post application): 1 to 19%; pest or weed control at 0.001 % strength ([1]; 48 h, Caterpillars, 0.001 % w/v, 48 hours post application): 1 to 19%; pest or weed control at 0.002 % strength ([1]; 48 h, Caterpillars, 0.002 % w/v, 48 hours post application): 0%
COC(CN(Cc1ccc(Cl)nc1)C1=CC(=O)OC1)OC [Compound 5, 3-[(6-Chloro-3-pyridyl)methyl-(2,2-dimethoxyethyl)amino]-2H-furan-5-one] | 1 to 19 | 1 to 19 | 1 to 19 | 20 to 39 | 1 to 19 | 1 to 19 | 1 to 19 | 1 to 19 | 20 to 39 | 1 to 19 | 1 to 19 | 1 to 19 | 1 to 19 | 1 to 19 | 1 to 19 | 1 to 19 | 1 to 19 | 1 to 19 | 1 to 19 | 20 to 39 | 
